In experiment [1] the target is T1, hFASN enzyme (full length) (Homo sapiens, UniProt P49327).
T1 construct: 10 μL hFASN enzyme (full length, 300 ng, purified in house); made in house
The experiment in a line: Fatty Acid Synthase (FASN) inhibition scintillation proximity assay. Particulars: for inhibition at 10 µM: read-out: Human FASN % inhibition @ 10 μM, 10 μM test compound; for IC50: read-out: Human FASN pIC50 (converted). In kind it is biochemical. In short, it runs like this:
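Proximity read-out: hydrophobic ^3H-palmitate formed from ^3H-acetyl-CoA and malonyl-CoA binds streptavidin imaging beads, imaged at 610±20 nm at least 24 h after stopping. Enzyme was in-house purified full-length hFASN, 300 ng, in pH 7.5 phosphate/DTT buffer; compound series 30 μM down to 0.01 μM, normalized to controls, 4-parameter fit.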

For experiment [2], the system named is PC-3M-Luc-C6 prostate cells. The experiment in a line: In vitro PC-3M-Luc-C6 prostate cell proliferation assay in lipid reduced medium. The class given is cell-based. The conditions noted are these: 96 h, read-out: pIC50 PC-3M-Luc-C6 prostate cell (converted).
The target in experiment [3] is Fatty Acid Synthase Keto-reductase Domain (FASN KR) (Homo sapiens, UniProt P49327). Description: Fatty Acid Synthase keto-reductase domain (FASN KR) inhibition, NADPH oxidation at 340 nm.
Sequence of Fatty Acid Synthase Keto-reductase Domain (FASN KR) (P49327 whole entry, the tested form may be a part): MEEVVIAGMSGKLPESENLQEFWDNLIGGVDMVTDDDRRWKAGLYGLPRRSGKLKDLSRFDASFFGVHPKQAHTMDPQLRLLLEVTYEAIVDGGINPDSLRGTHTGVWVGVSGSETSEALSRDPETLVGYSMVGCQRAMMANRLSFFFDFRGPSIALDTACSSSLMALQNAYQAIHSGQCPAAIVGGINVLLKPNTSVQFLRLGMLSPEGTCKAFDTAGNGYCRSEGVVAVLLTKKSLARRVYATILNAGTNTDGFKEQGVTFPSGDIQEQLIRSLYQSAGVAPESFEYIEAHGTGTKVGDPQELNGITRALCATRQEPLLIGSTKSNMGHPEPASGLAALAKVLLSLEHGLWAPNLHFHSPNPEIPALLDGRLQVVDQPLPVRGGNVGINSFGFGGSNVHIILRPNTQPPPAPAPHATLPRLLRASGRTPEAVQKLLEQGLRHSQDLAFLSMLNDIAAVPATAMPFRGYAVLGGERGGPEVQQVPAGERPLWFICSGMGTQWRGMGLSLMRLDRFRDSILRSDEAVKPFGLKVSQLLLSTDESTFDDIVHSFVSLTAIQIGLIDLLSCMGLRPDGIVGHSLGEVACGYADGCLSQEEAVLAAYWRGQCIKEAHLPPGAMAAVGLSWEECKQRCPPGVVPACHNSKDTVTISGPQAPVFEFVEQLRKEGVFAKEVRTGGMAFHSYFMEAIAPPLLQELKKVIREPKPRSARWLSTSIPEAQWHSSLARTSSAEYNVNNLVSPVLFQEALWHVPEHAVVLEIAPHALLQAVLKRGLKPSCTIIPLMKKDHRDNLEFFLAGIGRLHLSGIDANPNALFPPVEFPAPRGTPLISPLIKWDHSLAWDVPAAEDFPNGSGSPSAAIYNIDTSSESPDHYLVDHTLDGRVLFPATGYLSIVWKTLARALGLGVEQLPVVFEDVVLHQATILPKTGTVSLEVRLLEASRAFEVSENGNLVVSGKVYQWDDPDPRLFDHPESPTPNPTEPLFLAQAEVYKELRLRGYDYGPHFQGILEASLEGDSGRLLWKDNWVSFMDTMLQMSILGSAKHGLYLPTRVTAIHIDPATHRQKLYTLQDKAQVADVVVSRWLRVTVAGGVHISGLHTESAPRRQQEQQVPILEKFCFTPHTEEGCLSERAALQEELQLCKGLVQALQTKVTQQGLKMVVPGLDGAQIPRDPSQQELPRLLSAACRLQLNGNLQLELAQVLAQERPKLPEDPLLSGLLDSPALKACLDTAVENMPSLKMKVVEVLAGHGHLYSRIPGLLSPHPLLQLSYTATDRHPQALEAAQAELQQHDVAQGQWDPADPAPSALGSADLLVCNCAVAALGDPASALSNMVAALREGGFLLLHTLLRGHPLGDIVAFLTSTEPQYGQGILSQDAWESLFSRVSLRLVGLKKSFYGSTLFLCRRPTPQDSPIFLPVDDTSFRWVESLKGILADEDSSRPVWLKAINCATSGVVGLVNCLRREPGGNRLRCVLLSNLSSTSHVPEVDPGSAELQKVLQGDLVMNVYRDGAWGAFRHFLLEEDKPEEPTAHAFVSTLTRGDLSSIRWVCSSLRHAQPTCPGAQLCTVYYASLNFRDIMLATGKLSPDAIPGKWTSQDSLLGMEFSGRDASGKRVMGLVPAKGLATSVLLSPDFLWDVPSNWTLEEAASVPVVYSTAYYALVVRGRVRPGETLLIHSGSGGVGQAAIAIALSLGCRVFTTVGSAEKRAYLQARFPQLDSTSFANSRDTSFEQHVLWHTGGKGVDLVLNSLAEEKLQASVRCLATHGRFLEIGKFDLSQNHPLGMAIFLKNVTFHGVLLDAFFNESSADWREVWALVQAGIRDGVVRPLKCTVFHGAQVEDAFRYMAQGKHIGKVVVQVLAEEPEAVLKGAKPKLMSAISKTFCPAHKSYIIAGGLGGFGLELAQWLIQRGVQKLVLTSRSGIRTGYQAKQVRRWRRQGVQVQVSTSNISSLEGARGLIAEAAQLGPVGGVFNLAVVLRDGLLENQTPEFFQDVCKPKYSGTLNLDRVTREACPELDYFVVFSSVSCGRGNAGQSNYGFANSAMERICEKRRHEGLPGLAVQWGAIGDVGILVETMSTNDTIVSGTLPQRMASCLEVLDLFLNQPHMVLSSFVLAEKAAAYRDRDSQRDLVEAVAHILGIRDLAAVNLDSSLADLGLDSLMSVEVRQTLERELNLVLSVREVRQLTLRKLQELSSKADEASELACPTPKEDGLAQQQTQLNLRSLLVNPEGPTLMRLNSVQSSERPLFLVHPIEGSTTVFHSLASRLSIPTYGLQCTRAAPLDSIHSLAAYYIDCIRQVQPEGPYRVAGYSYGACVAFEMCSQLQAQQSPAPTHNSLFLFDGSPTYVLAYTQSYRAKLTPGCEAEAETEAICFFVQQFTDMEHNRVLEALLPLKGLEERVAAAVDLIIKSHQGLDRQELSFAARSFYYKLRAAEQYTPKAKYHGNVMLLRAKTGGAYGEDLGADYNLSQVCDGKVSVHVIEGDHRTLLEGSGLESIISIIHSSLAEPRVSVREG
Protocol: After 20 minutes incubation at room temperature the plate was measured again (T2).
The decrease in absorbance was calculated as (Absorbance before incubation T1)−(Absorbance following incubation T2).
A plot of Controlmin versus test compound concentration was fitted to a 4-parameter logistic curve using a non-linear least squares regression method.
The subject of experiment [4] is LNCaP-Vancouver prostate cells. The experiment in a line: In vitro LNCaP Vancouver prostate cell proliferation assay in lipid reduced medium. The conditions noted are these: read-out: pIC50 LNCaP_Vancouver prostate cell (converted). In kind it is cell-based.
Experiment [5] has as its system A2780 ovarian cells. The experiment in a line: A2780 ovarian cell proliferation assay in lipid reduced medium, with palmitate (MTT). The class given is cell-based. Particulars: Homo sapiens, A2780, 96 h; read-out: pIC50 A2780 Ovarian Cell, With Palmitate (converted). In short, it runs like this:
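In this palmitate-supplemented format, compound dilutions (30 μM down to 0.01 μM) are added to cells in lipid-reduced serum with 25 μM palmitate, 0.2% fatty-acid-free BSA and 0.25% ethanol. After four days (96 h) MTT absorbance at 544 nm is recorded and fitted by minimum sum of squares.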

The subject of experiment [6] is A2780 ovarian cells. Description: A2780 ovarian cell proliferation assay in lipid reduced medium, without palmitate (MTT). In kind it is cell-based. Particulars: Homo sapiens, A2780, 96 h; read-out: pIC50 A2780 Ovarian Cell, Without Palmitate (converted).

T1 sequence (P49327 whole entry): as the sequence (P49327 whole entry, the tested form may be a part) above

As a reminder, the inhibition is the relative decrease from the control value, in per cent. As to `O=C(C1CC1)N1CC[C@@H](CN2C(=O)C3(CC3)N=C2c2ccc(-c3ccc4occc4c3)cc2F)C1` [compound 240, (R)-5-(4-(benzofuran-5-yl)-2-fluorophenyl)-6-((1-(cyclopropanecarbonyl)pyrrolidin-3-yl)methyl)-4,6-diazaspiro[2.4]hept-4-en-7-one], the inhibition at 10 µM in experiment [1] was found to be 101%. Besides, the IC50 is 0.0123 µM in experiment [1]; roughly 0.166 µM in experiment [2]; 0.0263 µM in experiment [3]; 0.537 µM in experiment [4]; greater than 6.17 µM with A2780 ovarian cells [5]; 0.2 µM in the experiment with A2780 ovarian cells [6].

Regarding `O=C(C1CC1)N1CC[C@@H](CN2C(=O)C3(CC3)N=C2c2ccc(-c3ccc4sccc4c3)cc2F)C1` [compound 241, (R)-5-(4-(benzo[b]thiophen-5-yl)-2-fluorophenyl)-6-((1-(cyclopropanecarbonyl)pyrrolidin-3-yl)methyl)-4,6-diazaspiro[2.4]hept-4-en-7-one], in experiment [1], the inhibition at 10 µM turned out to be 100%. The IC50 in experiment [1] is 0.0219 µM; in experiment [2], roughly 0.0562 µM; in experiment [3], 0.0288 µM; in experiment [4], 0.166 µM; with A2780 ovarian cells [5], greater than 10 µM; with A2780 ovarian cells [6], roughly 0.0759 µM.

With `Cc1cc2cc(-c3ccc(C4=NC5(CC5)C(=O)N4C[C@@H]4CCN(C(=O)C5CC5)C4)c(F)c3)ccc2o1` [compound 242, (R)-6-((1-(cyclopropanecarbonyl)pyrrolidin-3-yl)methyl)-5-(2-fluoro-4-(2-methylbenzofuran-5-yl)phenyl)-4,6-diazaspiro[2.4]hept-4-en-7-one], the inhibition at 10 µM in experiment [1] came to 103%. In addition, the IC50 was 0.0191 µM in experiment [1]; roughly 0.646 µM in experiment [2]; 0.0355 µM in experiment [3]; roughly 1.58 µM in experiment [4]; greater than 10 µM with A2780 ovarian cells [5]; roughly 0.724 µM with A2780 ovarian cells [6].

Turning to `Cc1cc2cc(-c3ccc(C4=NC5(CC5)C(=O)N4C[C@@H]4CCN(C(=O)C5CC5)C4)c(F)c3)ccc2s1` [compound 243, (R)-6-((1-(cyclopropanecarbonyl)pyrrolidin-3-yl)methyl)-5-(2-fluoro-4-(2-methylbenzo[b]thiophen-5-yl)phenyl)-4,6-diazaspiro[2.4]hept-4-en-7-one], in experiment [1], the inhibition at 10 µM amounted to 104%. Also, the IC50 was 0.0224 µM in experiment [1]; roughly 0.24 µM in experiment [2]; 0.0417 µM in experiment [3]; 0.832 µM in experiment [4]; greater than 6.17 µM in the experiment on A2780 ovarian cells [5]; 0.646 µM with A2780 ovarian cells [6].

In the case of `Cc1oc2ccc(-c3ccc(C4=NC5(CC5)C(=O)N4C[C@@H]4CCN(C(=O)C5CC5)C4)c(F)c3)cc2c1C` [compound 244, (R)-6-((1-(cyclopropanecarbonyl)pyrrolidin-3-yl)methyl)-5-(4-(2,3-dimethylbenzofuran-5-yl)-2-fluorophenyl)-4,6-diazaspiro[2.4]hept-4-en-7-one], the inhibition at 10 µM in experiment [1] turned out to be 101%. Further, the IC50 in experiment [1] was 0.0562 µM; in experiment [2], roughly 1.41 µM; in experiment [3], 0.0562 µM; in experiment [4], 1.82 µM; in the experiment on A2780 ovarian cells [5], greater than 10 µM; with A2780 ovarian cells [6], roughly 2.24 µM.

Take `Cc1sc2ccc(-c3ccc(C4=NC5(CC5)C(=O)N4C[C@@H]4CCN(C(=O)C5CC5)C4)c(F)c3)cc2c1C` [compound 245]: in experiment [1], the inhibition at 10 µM stood at 98%. In addition, the IC50 in experiment [1] was 0.0324 µM; in experiment [2], roughly 0.646 µM; in experiment [3] it was 0.0372 µM; in experiment [4] it was roughly 1.7 µM; in the experiment on A2780 ovarian cells [5] it was greater than 10 µM; in the experiment with A2780 ovarian cells [6], 1.55 µM.

For the molecule `O=C(C1CC1)N1CC[C@@H](CN2C(=O)C3(CC3)N=C2c2ccc(-c3ccc4[nH]ccc4c3)cc2F)C1` [compound 246, (R)-6-((1-(cyclopropanecarbonyl)pyrrolidin-3-yl)methyl)-5-(2-fluoro-4-(1H-indol-5-yl)phenyl)-4,6-diazaspiro[2.4]hept-4-en-7-one], the inhibition at 10 µM in experiment [1] was found to be 101%. The IC50 in experiment [1] is 0.017 µM; in experiment [2] it was 0.00479 µM; in experiment [3] it was 0.038 µM; in experiment [4], 0.0155 µM; with A2780 ovarian cells [5] it was greater than 10 µM; in the experiment with A2780 ovarian cells [6], roughly 0.00501 µM.

In the case of `O=C(C1CC1)N1CC[C@@H](CN2C(=O)C3(CC3)N=C2c2ccc(-c3ccc4cc[nH]c4c3)cc2F)C1` [compound 247, (R)-6-((1-(cyclopropanecarbonyl)pyrrolidin-3-yl)methyl)-5-(2-fluoro-4-(1H-indol-6-yl)phenyl)-4,6-diazaspiro[2.4]hept-4-en-7-one], the inhibition at 10 µM in experiment [1] is 103%. Further, the IC50 is 0.0162 µM in experiment [1]; 0.00724 µM in experiment [2]; 0.0178 µM in experiment [3]; 0.0234 µM in experiment [4]; greater than 10 µM in the experiment with A2780 ovarian cells [5]; 0.00501 µM in the experiment with A2780 ovarian cells [6].

On to `O=C(C1CC1)N1CC[C@@H](CN2C(=O)C3(CC3)N=C2c2ccc(-c3ccc4cccnc4c3)cc2F)C1` [compound 249, (R)-6-((1-(cyclopropanecarbonyl)pyrrolidin-3-yl)methyl)-5-(2-fluoro-4-(quinolin-7-yl)phenyl)-4,6-diazaspiro[2.4]hept-4-en-7-one], for which, in experiment [1], the inhibition at 10 µM turned out to be 102%. Besides, the IC50 in experiment [1] was 0.017 µM; in experiment [2], 0.00417 µM; in experiment [3], 0.0195 µM; in experiment [4], 0.0166 µM; in the experiment on A2780 ovarian cells [5], greater than 10 µM; in the experiment on A2780 ovarian cells [6] it was roughly 0.0055 µM.

As to `O=C(C1CC1)N1CC[C@@H](CN2C(=O)C3(CC3)N=C2c2ccc(-c3cccc4ncccc34)cc2F)C1` [compound 250, (R)-6-((1-(cyclopropanecarbonyl)pyrrolidin-3-yl)methyl)-5-(2-fluoro-4-(quinolin-5-yl)phenyl)-4,6-diazaspiro[2.4]hept-4-en-7-one], the inhibition at 10 µM in experiment [1] was 100%. For the same molecule, the IC50 in experiment [1] was 0.049 µM; in experiment [2], 0.234 µM; in experiment [3], 0.0692 µM; in experiment [4], 0.692 µM; with A2780 ovarian cells [5] it was greater than 10 µM; in the experiment with A2780 ovarian cells [6], 0.302 µM.

For the molecule `O=C(C1CC1)N1CC[C@@H](CN2C(=O)C3(CC3)N=C2c2ccc(-c3nc4ccccc4o3)cc2F)C1` [compound 251, (R)-5-(4-(benzo[d]oxazol-2-yl)-2-fluorophenyl)-6-((1-(cyclopropanecarbonyl)pyrrolidin-3-yl)methyl)-4,6-diazaspiro[2.4]hept-4-en-7-one], the inhibition at 10 µM in experiment [1] was found to be 101%. The IC50 in experiment [1] was 0.0324 µM; in experiment [2] it was roughly 0.0417 µM; in experiment [3] it was 0.0427 µM; in experiment [4], 0.138 µM; with A2780 ovarian cells [5], greater than 10 µM; with A2780 ovarian cells [6], 0.0724 µM.

`O=C(C1CC1)N1CC[C@@H](CN2C(=O)C3(CC3)N=C2c2ccc(-c3ccc4[nH]ncc4c3)cc2F)C1` [compound 253, (R)-6-((1-(cyclopropanecarbonyl)pyrrolidin-3-yl)methyl)-5-(2-fluoro-4-(1H-indazol-5-yl)phenyl)-4,6-diazaspiro[2.4]hept-4-en-7-one]: the inhibition at 10 µM in experiment [1] is 97%. The IC50 was 0.0355 µM in experiment [1]; 0.0141 µM in experiment [2]; 0.0275 µM in experiment [3]; 0.0646 µM in experiment [4]; greater than 10 µM in the experiment with A2780 ovarian cells [5]; 0.012 µM in the experiment on A2780 ovarian cells [6].

As to `N#Cc1cc2cc(-c3ccc(C4=NC5(CC5)C(=O)N4C[C@@H]4CCN(C(=O)C5CC5)C4)c(F)c3)ccc2o1` [compound 254, (R)-5-(4-(6-((1-(cyclopropanecarbonyl)pyrrolidin-3-yl)methyl)-7-oxo-4,6-diazspiro[2.4]hept-4-en-5-yl)-3-fluorophenyl)benzofuran-2-carbonitrile], the inhibition at 10 µM in experiment [1] was found to be 100%. The IC50 in experiment [1] is 0.0295 µM; in experiment [2], 0.224 µM; in experiment [3] it was 0.0501 µM; in experiment [4], 1.38 µM; in the experiment with A2780 ovarian cells [5] it was greater than 10 µM; in the experiment with A2780 ovarian cells [6], 0.437 µM.

Consider `Cc1cc(-c2ccc3oc(C#N)cc3c2)ccc1C1=NC2(CC2)C(=O)N1C[C@@H]1CCN(C(=O)C2CC2)C1` [compound 255, (R)-5-(4-(6-((1-(cyclopropanecarbonyl)pyrrolidin-3-yl)methyl)-7-oxo-4,6-diazaspiro[2.4]hept-4-en-5-yl)-3-methylphenyl)benzofuran-2-carbonitrile], for which the inhibition at 10 µM in experiment [1] is 99%. Besides, the IC50 is 0.0631 µM in experiment [1]; roughly 0.525 µM in experiment [2]; 0.0832 µM in experiment [3]; 1.12 µM in experiment [4]; greater than 10 µM in the experiment on A2780 ovarian cells [5]; roughly 0.977 µM with A2780 ovarian cells [6].

Consider `N#Cc1cc2cc(-c3ccc(C4=NC5(CC5)C(=O)N4C[C@@H]4CCN(C(=O)C5CC5)C4)cc3)ccc2o1` [compound 256, (R)-5-(4-(6-((1-(cyclopropanecarbonyl)pyrrolidin-3-yl)methyl)-7-oxo-4,6-diazaspiro[2.4]hept-4-en-5-yl)phenyl)benzofuran-2-carbonitrile], for which the inhibition at 10 µM in experiment [1] came to 95%. In addition, the IC50 in experiment [1] was 0.0537 µM; in experiment [2] it was roughly 0.417 µM; in experiment [3] it was 0.0955 µM; in experiment [4] it was 2.4 µM; with A2780 ovarian cells [5], greater than 10 µM; in the experiment on A2780 ovarian cells [6] it was 0.832 µM.
